Literature values, collected in patent publication US11666537B2, “Solid oral dosage form of irinotecan for the treatment of cancer” (Oncoral Pharma ApS, priority 2014, dated 2023).

Test system: tumor cells
Settings: human and rodent tumor cell lines

CCc1c2c(nc3ccc(O)cc13)-c1cc3c(c(=O)n1C2)COC(=O)[C@]3(O)CC [SN-38]
times more cytotoxic than irinotecan: 100-1000 times
